Data reported in patent publication US20110189174A1, “COMPOSITIONS AND METHODS FOR TREATING, REDUCING, AMELIORATING, ALLEVIATING, OR INHIBITING PROGRESSION OF, PATHOGENIC OCULAR NEOVASCULARIZATION” (priority 2010, published 2011).

Legend:
[1] = intravitreal, wet AMD, cited from earlier work
[2] = system: laser-induced CNV in monkeys; test: Laser-induced choroidal neovascularization in monkeys, fluorescein angiography lesion grading; assay type: in vivo, cynomolgus monkeys (Macaca fascicularis); settings: intravitreal, both eyes, days 1 and 15, 1.5 mg/eye (Lucentis 0.5 mg/eye)
Description: Study was performed in three phases. In phases Ia and Ib, the behavior of the suspension in aqueous (Ia) and oil (Ib) formulations, and multiple dosing regimens as well as any adverse effect due to multiple dosing at 3 mg/eye (Ia) or 1.5 (Ib) were investigated. In phase II test articles were administered twice during the study period on days 1 and 15. Eyes were examined with an indirect ophthalmoscope and fundus camera.
Adult male cynomolgus monkeys (Macaca fascicularis) age 2-7 years old were used to test the efficacy of BOL-303050-X, BOL-303054-X and BOL-303055-X. Lucentis® (ranibizumab) was used as historic control.
Both eyes of 46 monkeys were examined at baseline and then 42 animals were randomized into 5 groups. On Phase II Day 8 of Dosing, the animals were anesthetized with ketamine and dexmedetomidine and the macula of each eye of the animals in Groups 1 through […] underwent laser treatment by a retinal surgeon with a 532 nm diode green laser (OcuLight GL, IRIDEX Corp. Inc., Mountain View, Calif.) using a slit lamp delivery system and a Kaufman-Wallow (Ocular Instruments Inc, Bellevue, Wash.) plano fundus contact lens with Gonak (2.5%) as the coupling agent. Nine laser spot areas were symmetrically placed in the macula of each eye. The laser parameters included a 75 micron spot size and 0.1 second duration. The power setting used was assessed by the ability to produce a blister and a small hemorrhage. […] For areas not adjacent to the fovea, the initial power setting was 500 mW; if a second spot was placed, the power was set to 650 mW. For the area adjacent to the fovea the power settings were 400 mW (initial treatment) and 550 mW (second treatment). At the discretion of the retinal surgeon, power settings were adjusted based on observations at the time of laser. Power setting used for each spot was documented as well as number of burns per spot and whether hemorrhage occurred.
(§1) Once the phase Ib study was completed, and it was established that the drug suspension in oil would not interfere with either laser administration, evaluation of CNV or cause adverse effects, phase II was initiated. On days 1, and 15 both eyes of monkeys received 50 μL of Lucentis (0.5 mg/eye), vehicle (0 mg/eye), BOL-303050-X (1.5 mg/eye), BOL-303054-X (1.5 mg/eye) or BOL-303055-X (1.5 mg/eye) (Table 2). Intravitreous injection was performed for each by eye aiming towards mid-vitreous body. Dosing in the right eye was alternated for successive doses (as applicable) at approximately the 11 o'clock and 10 o'clock positions. Dosing in the left eye was alternated for successive doses (as applicable) from approximately the 1 o'clock and 2 o'clock positions.
Animals were anesthetized with ketamine and dexmedetomidine. A topical anesthetic (0.5% proparacaine) was instilled in each eye before dose administration. A wire speculum was used to retract the eyelids. The eyes were cleaned with a 2.5% povidone iodine solution and then rinsed with sterile saline. Each animal was dosed using 1 cc tuberculin syringes and 30 gauge needles.
FA was performed at baseline, on days 22, 29 and 37 (approximately 14, 21 and 28 days post-laser). Digital ocular photographs were taken in conjunction with FA. The FA procedure is well known by people skilled in the art of ophthalmology.
Evaluation of FA was done according to the following grading system for evidence of excessive permeability (fluorescein leakage) or any other abnormalities.
Grade IV lesions are considered to be clinically significant as these most closely resemble the active forms of classical CNV seen in various human retinal disorders, including age-related macular degeneration. Comparison of the incidence of Grade IV lesions between treatment groups was evaluated.
Grade IV lesions were analyzed using either Fisher's exact probability test (2-Tail) or Chi square test (χ2). […]

[3] = Clinical ophthalmic examination in monkeys (vitreal cell scores, anterior chamber inflammation); assay type: in vivo, cynomolgus monkeys (Macaca fascicularis); settings: cynomolgus monkey, in vivo
Description: as §1
Animals were examined at baseline, on days 1, 3, 7, 15, and 31 of Dosing Phase II and on the day of scheduled sacrifice (day 38). On days of dose administration the ophthalmic examination was done prior to dosing.

[4] = system: human retinal endothelial cells (HREC); test: Testing 7: VEGF-induced HREC proliferation (MTS assay), integrin antagonists and Lucentis alone and in combination; assay type: cell-based; settings: Lucentis 1 ng/mL
Description: HREC were first cultured overnight in a 96-well plate coated with fibronectin. The next day medium containing different agents as shown in Tables 14 and 15 was pre-incubated for 1 hour before being added into appropriate wells. The cells were cultured at 37° C., 5% CO2, and 95% humidity for another 3 days. After that, cell proliferation was estimated by the MTS assay. In the first study we used VEGF 10 ng/mL (about EC80 in study PH08169), Lucentis® 1 ng/mL (about EC25 in study PH09038) and 5 doses of BOL-303055-X. Normal IgG (1 ng/ml) was also added to groups containing no Lucentis®. All groups contained the same amount of 0.1% DMSO. In the second study, all five compounds (BOL-303049-X, BOL-303050-X, BOL-303051-X, BOL-303054-X and BOL-303055-X) were tested at 1 nM with other conditions remaining the same.
A 96-well plate was coated with human fibronectin (10 μg/mL) for 5 hours at 37° C. HREC were washed with HBSS buffer once, tripsinized and re-suspended in 10% FBS CS-C medium at 18,000 cells/mL. Cells (200 μL) were added to the plate and cultured overnight at 37° C., 5% CO2, and 95% humidity. Next day, the cells were serum-starved for 2 hours.
For study I, VEGF at 10 ng/mL, Lucentis® at 1 ng/mL and BOL-303055-X at 0.1, 0.3, 1, 3 and 10 nM were prepared in 1% FBS CS medium as shown in Table 14. Normal IgG (1 ng/mL) were added to groups containing no Lucentis®. All medium solutions were incubated for 1 hour at 37° C. After carefully medium was aspirated, 200 μL of the medium containing different agents were then added into appropriate wells. The cells were cultured for another 3 days. For the study II as shown in the Table 15, five compounds were tested at 1 nM with other conditions remaining the same as study I.
At the end of incubation, the medium was carefully aspirated from cells and 120 μl of MTS working solution was added into all wells including blank wells (without cells). The plates were incubated at 37° C., 5% CO2, and 95% humidity for 1 hour and then read by a plate reader at 490 nm wavelength.
Median optical density (OD) was generated from different groups. Data were expressed as mean±SEM of the OD values. Statistical analysis was performed using three-way ANOVA after Box-Cox transformations, and p<0.05 was considered statistically significant. To evaluate whether the effects of the combinations were either synergistic or additive, net inhibitions were calculated by subtracting the basal levels in the presence of VEGF from the individual treatments (Lucentis® and Integrin blockers) and the combinations. […] Data analysis was performed utilizing the statistical analysis software JMP (SAS Institute, Cary, N.C.).

Substance: ranibizumab [Lucentis, reference compound]
- Patients who maintained visual acuity ([1]; at 1 year): 95%
- Patients with improvement in vision of at least 3 lines [1]: 40%
- Incidence of CNV lesions, Lesion Grade I (% Total) ([2]; Day 22): 97:126 (76.98) %
- Incidence of CNV lesions, Lesion Grade II (% Total) ([2]; Day 22): 20:126 (15.87) %
- Incidence of CNV lesions, Lesion Grade III (% Total) ([2]; Day 22): 9:126 (7.14) %
- Incidence of CNV lesions, Lesion Grade IV (% Total) ([2]; Day 22): 0:126 (0) %
- Incidence of CNV lesions, Lesion Grade I (% Total) ([2]; Day 29): 96:126 (76.19) %
- Incidence of CNV lesions, Lesion Grade II (% Total) ([2]; Day 29): 22:126 (17.46) %
- Incidence of CNV lesions, Lesion Grade III (% Total) ([2]; Day 29): 8:126 (6.35) %
- Incidence of CNV lesions, Lesion Grade IV (% Total) ([2]; Day 29): 0:126 (0) %
- Incidence of CNV lesions, Lesion Grade I (% Total) ([2]; Day 37): 118:126 (93.65) %
- Incidence of CNV lesions, Lesion Grade II (% Total) ([2]; Day 37): 8:126 (6.35) %
- Incidence of CNV lesions, Lesion Grade III (% Total) ([2]; Day 37): 3:126 (1.85) %
- Incidence of CNV lesions, Lesion Grade IV (% Total) ([2]; Day 37): 0:126 (0) %
- Vitreal cell score: number of eyes with grade 4 [3]: 0
- Reduction of VEGF-induced HREC proliferation ([4]; VEGF 10 ng/mL): 15-20%
- HREC proliferation without VEGF ([4]; basal and Lucentis-treatment conditions, BOL-303055-X 0.1-10 nM, other compounds 1 nM): did not alter HREC proliferation
